The values that follow come from patent publication US20090005395A1 (Solvay Pharmaceuticals, B.V., priority 2007, published 2009).

Data set [1] can be described thus: Plasma and brain concentrations of N-desmethylsildenafil (pilot experiment). The class given is in vivo, male NMRI mice. Conditions: mice, i.v. or p.o.; for the N-oxide only observed after oral dosing. On the procedure:
Sildenafil and its N-oxide were analyzed in mouse plasma and brain samples using a generic bioanalytical method comprising protein precipitation and HPLC with MS/MS detection.
Sample preparation: Proteins in 100 μl plasma were precipitated with acetonitrile, and 5 μl samples of the obtained solution were analyzed. Complete brains were homogenized and centrifuged, and 10 μl samples of the supernatant were analyzed.
Liquid Chromatography-Tandem Mass Spectrometry (LC-MS/MS) was performed using a Sciex API4000 LC-MS/MS. Quantification of the samples was done using extracted calibration samples, treated the same as the study samples in the range of 1-5000 ng/ml and 5.0-5000 ng/brain for plasma and brains samples, respectively. Compound peak area was used for quantification. The calibration curves were fitted to the model y=A+Bx+Cx^2 (y is the peak area of the analyte, x is the nominal calibration level in ng/ml (plasma) or ng/g (brain), A is the intercept, B is the slope and C is the description of the curvature). 1/x^2 weighing was used. LC-MS/MS system performance was monitored using a reference solution injected at standard intervals. The method use for testing was not validated in detail, therefore the reported concentrations were good estimations. The Lower Limit Of Quantification (LLOQ) was established at 1.00 ng/ml and 5.00 ng/brain, for plasma and brain samples, respectively. […]

For data set [2], the system named is PDE-I. The data set can be described thus: In vitro inhibition of phosphodiesterases (CEREP): PDE-I. The settings on record: bovine brain.
In data set [3] the target is PDE-V (Homo sapiens, UniProt O76074). In words: In vitro inhibition of phosphodiesterases (CEREP): PDE-V.
The target of data set [4] is PDE-II (Homo sapiens, UniProt O00408). In words: In vitro inhibition of phosphodiesterases (CEREP): PDE-II.
In data set [5] the test system is PDE-IV. In words: In vitro inhibition of phosphodiesterases (CEREP): PDE-IV. The settings on record: human U-937 monocytes.
Data set [6] has as its target T1, PDE-VI (Bos taurus, UniProt P11541+P23439).
T1 sequence (P11541 2-856 limits assumed): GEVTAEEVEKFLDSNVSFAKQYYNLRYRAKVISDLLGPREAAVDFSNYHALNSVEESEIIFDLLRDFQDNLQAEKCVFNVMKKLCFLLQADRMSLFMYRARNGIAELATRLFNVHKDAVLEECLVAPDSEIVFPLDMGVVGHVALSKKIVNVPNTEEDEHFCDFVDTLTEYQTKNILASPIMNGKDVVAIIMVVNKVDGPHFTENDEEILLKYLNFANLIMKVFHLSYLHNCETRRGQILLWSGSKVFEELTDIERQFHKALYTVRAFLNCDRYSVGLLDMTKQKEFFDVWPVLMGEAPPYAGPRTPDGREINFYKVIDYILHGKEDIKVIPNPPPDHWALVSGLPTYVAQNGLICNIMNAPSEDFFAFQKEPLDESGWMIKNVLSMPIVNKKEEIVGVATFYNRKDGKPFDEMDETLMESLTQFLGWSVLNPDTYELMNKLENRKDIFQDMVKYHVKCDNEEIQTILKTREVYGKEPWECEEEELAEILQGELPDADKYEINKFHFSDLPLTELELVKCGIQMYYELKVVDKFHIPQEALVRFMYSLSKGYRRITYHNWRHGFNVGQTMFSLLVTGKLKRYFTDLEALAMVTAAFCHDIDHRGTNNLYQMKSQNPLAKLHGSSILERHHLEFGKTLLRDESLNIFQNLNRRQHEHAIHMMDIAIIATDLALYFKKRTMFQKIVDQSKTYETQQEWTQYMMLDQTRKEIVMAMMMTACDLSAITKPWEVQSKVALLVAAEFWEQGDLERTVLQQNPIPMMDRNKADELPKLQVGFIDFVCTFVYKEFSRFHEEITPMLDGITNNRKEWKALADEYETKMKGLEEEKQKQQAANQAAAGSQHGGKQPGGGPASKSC
T1 sequence (P23439 2-850 limits assumed): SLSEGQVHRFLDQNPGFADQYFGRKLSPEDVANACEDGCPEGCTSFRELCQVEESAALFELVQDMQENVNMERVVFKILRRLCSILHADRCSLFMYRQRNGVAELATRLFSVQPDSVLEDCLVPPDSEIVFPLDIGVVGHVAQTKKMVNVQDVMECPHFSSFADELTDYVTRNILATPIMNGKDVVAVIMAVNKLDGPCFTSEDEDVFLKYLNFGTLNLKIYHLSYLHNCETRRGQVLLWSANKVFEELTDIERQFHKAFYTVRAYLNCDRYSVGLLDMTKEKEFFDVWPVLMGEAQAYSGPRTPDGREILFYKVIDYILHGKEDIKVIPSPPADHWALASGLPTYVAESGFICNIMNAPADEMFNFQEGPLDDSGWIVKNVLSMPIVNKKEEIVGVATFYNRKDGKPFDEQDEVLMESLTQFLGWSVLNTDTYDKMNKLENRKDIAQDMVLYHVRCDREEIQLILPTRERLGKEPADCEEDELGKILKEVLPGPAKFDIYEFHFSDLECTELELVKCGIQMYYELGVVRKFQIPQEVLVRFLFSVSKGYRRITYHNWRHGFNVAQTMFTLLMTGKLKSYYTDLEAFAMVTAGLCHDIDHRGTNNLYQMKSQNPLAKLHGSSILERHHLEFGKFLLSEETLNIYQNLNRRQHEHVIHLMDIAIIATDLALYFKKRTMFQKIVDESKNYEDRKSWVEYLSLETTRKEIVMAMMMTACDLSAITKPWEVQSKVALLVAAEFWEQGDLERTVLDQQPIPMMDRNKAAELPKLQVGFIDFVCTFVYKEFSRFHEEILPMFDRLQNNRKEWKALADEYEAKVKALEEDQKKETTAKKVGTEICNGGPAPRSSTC
In words: In vitro inhibition of phosphodiesterases (CEREP): PDE-VI.

PDE-II, sequence (O00408 whole entry): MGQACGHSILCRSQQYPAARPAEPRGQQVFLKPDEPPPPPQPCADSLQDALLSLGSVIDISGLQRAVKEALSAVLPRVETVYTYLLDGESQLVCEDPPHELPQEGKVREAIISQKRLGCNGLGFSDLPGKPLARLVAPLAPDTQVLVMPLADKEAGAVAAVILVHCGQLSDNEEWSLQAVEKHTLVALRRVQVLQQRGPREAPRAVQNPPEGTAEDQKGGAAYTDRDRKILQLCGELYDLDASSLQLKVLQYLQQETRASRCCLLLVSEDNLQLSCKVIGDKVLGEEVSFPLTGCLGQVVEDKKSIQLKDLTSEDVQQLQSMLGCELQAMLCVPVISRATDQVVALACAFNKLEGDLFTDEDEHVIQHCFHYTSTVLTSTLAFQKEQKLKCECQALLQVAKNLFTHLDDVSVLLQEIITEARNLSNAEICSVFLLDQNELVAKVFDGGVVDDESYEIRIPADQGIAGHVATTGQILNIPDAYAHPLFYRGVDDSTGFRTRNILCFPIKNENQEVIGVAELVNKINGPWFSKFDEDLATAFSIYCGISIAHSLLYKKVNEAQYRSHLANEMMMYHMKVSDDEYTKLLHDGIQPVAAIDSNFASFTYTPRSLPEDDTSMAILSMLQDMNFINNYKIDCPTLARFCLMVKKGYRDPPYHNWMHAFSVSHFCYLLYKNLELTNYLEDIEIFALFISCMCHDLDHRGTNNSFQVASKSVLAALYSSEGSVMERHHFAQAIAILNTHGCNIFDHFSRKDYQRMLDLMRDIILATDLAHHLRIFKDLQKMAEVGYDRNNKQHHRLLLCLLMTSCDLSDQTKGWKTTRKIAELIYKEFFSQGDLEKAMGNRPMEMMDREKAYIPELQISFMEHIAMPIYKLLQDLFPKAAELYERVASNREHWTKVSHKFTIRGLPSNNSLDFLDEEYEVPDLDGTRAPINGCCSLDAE

On to `CCCc1nn(C)c2c(=O)[nH]c(-c3cc(S(=O)(=O)N4CC[N+](C)([O-])CC4)ccc3OCC)nc12` [Sildenafil-N-oxide, 1-[[3-(6,7-dihydro-1-methyl-7-oxo-3-propyl-1H-pyrazolo[4,3-d]pyrimidin-5-yl)-4-ethoxyphenyl]sulfonyl]-4-methyl-4-oxido-piperazine], for which the “metabolism to N-desmethylsildenafil” value in data set [1] is given as “metabolized to N-desmethylsildenafil”. The “pIC50 PDE-I” value in data set [2] is on record as 5.8. Further, the IC50 in data set [3] was 200 nM; in data set [4] it was above 10 µM; in data set [6], 1000 nM. For the same compound, the “activity relative to the parent compound sildenafil” value in data set [3] was “about one tenth”. Moreover, in data set [3] (from Table 5), the “fold less potent than sildenafil” value is on record as 10 fold. In addition, the “pIC50 PDE-IV” value in data set [5] is reported as below 5.0.

Usually IC50 stands for the concentration at which inhibition is half-maximal. A higher IC50 goes with weaker potency.
